Article PMC9071123 (PLoS Neglected Tropical Diseases, 2022)
Several values for one entry are separate records, joined by “and”; a condition that tells them apart may be missing. Equal entries are not always repeated. Structures can show the parent of a compound that is named as a salt. Where two headings read alike, the source gives them in different places.

Columns and labels:
[1] = test system: SARS-CoV-2; assay: microbe, parasite or virus in culture; type: cell-based, SARS-CoV-2 (WIV-04); settings: for EC50: Severe acute respiratory syndrome coronavirus 2, Vero C1008, 36 h
[2] = test system: SARS-CoV-2 S-mediated cell-cell fusion; type: cell-based
[3] = test system: SARS-CoV-2; settings: previous study ref 19; cited from earlier work
[4] = Cytotoxicity CCK8 assay, Vero E6; settings: African green monkey, Vero E6 cells
[5] = test system: Vero E6 cells; assay: Cytotoxicity CCK8 assay, Vero E6
[6] = test system: SARS-CoV-2; assay: microbe, parasite or virus in culture; type: cell-based, SARS-CoV-2 (WIV-04); settings: Severe acute respiratory syndrome coronavirus 2, Caco-2, 36 h
[7] = test system: Renilla luciferase (Rluc) replicon of SARS-CoV-2; type: cell-based
[8] = test system: VSV-delG-Rluc-SARS-CoV-2-S pseudovirus; type: cell-based; settings: 10 μM
[9] = test system: Vero E6 cells; settings: African green monkey, 36 h
[10] = test system: Caco2 cells; settings: human, 36 h
[11] = in vitro; settings: African green monkey
[12] = in vitro; settings: human
[13] = test system: SARS-CoV-2; assay: Virus attachment assay in Vero E6 cells; settings: 10 μM, Vero E6, 4°C 1 h
Procedure: After synchronized adsorption for 1 h, the unbound SARS-CoV-2 virions were removed by PBS washing, and the relative levels of bound SARS-CoV-2 virions were measured by qRT-PCR assay.

Compound: COc1ccc2cc1Oc1ccc(cc1)C[C@H]1c3c(cc4c(c3Oc3cc5c(cc3OC)CCN(C)[C@@H]5C2)OCO4)CCN1C [Cepharanthine, cepharanthine]
- %inhibiton, mean (viral RNA genomic copy number) [1]: 99.5371% and 98.6265% and 86.3235% and 71.2349% and 67.6803%
- inhibition against SARS-CoV-2 infection [1]: dose-dependent inhibition
- selective index (SI) [1]: >8.93
- EC50 [1]: 2.24 µM
- inhibition of S-mediated cell-cell fusion (syncytial phenotype) [2]: apparent inhibitory effects
- inhibition of the SARS-CoV-2 induced cytopathic effect [3]: efficiently inhibit
- CC50 at 36 h [4]: > 20 µM
- %inhibiton, mean (CC50 data, CCK-8) ([5]; Vero-E6, 0.078125 μM): 9.153%
- %inhibiton, mean (CC50 data, CCK-8) ([5]; Vero-E6, 0.15625 μM): 9.469%
- %inhibiton, mean (CC50 data, CCK-8) ([5]; Vero-E6, 0.3125 μM): 5.3801%
- %inhibiton, mean (CC50 data, CCK-8) ([5]; Vero-E6, 0.625 μM): 1.292%
- %inhibiton, mean (CC50 data, CCK-8) ([5]; Vero-E6, 1.25 μM): 5.646%
- %inhibiton, mean (CC50 data, CCK-8) ([5]; Vero-E6, 2.5 μM): 5.87%
- %inhibiton, mean (CC50 data, CCK-8) ([5]; Vero-E6, 5 μM): 7.302%
- %inhibiton, mean (CC50 data, CCK-8) ([5]; Vero-E6, 10 μM): 3.537%
- %inhibiton, mean (CC50 data, CCK-8) ([5]; Vero-E6, 20 μM): 2.215%

Compound: COc1cc2c(cc1OC)[C@@H](Cc1ccc(O)c(Oc3cc4c(cc3OC)CCN(C)[C@@H]4Cc3ccc(O)cc3)c1)N(C)CC2 [liensinine]
- inhibition of S-mediated cell-cell fusion (syncytial phenotype) [2]: apparent inhibitory effects
- inhibition of the SARS-CoV-2 induced cytopathic effect [3]: efficiently inhibit

Compound: COc1ccc2cc1Oc1ccc(cc1)C[C@H]1c3cc(c(OC)cc3CCN1C)Oc1c(OC)c(OC)cc3c1[C@H](C2)N(C)CC3 [Tetrandrine, tetrandrine]
- inhibition against SARS-CoV-2 infection [1]: dose-dependent inhibition
- selective index (SI) [1]: >6.92
- EC50 [1]: 2.89 µM
- inhibition of S-mediated cell-cell fusion (syncytial phenotype) [2]: apparent inhibitory effects
- inhibition of the SARS-CoV-2 induced cytopathic effect [3]: efficiently inhibit
- CC50 at 36 h [4]: > 20 µM
- %inhibiton, mean (CC50 data, CCK-8) ([5]; Vero-E6, 0.078125 μM): 5.4651%
- %inhibiton, mean (CC50 data, CCK-8) ([5]; Vero-E6, 0.15625 μM): 9.075%
- %inhibiton, mean (CC50 data, CCK-8) ([5]; Vero-E6, 0.3125 μM): 8.155%
- %inhibiton, mean (CC50 data, CCK-8) ([5]; Vero-E6, 0.625 μM): 11.3125%
- %inhibiton, mean (CC50 data, CCK-8) ([5]; Vero-E6, 1.25 μM): 11.2558%
- %inhibiton, mean (CC50 data, CCK-8) ([5]; Vero-E6, 2.5 μM): 4.063%
- %inhibiton, mean (CC50 data, CCK-8) ([5]; Vero-E6, 5 μM): 5.628%
- %inhibiton, mean (CC50 data, CCK-8) ([5]; Vero-E6, 10 μM): -1.303%
- %inhibiton, mean (CC50 data, CCK-8) ([5]; Vero-E6, 20 μM): -2.23%

Compound: COc1ccc(C[C@@H]2c3cc(Oc4cc(C[C@@H]5c6cc(O)c(OC)cc6CCN5C)ccc4O)c(OC)cc3CCN2C)cc1 [isoliensinine]
- inhibition of S-mediated cell-cell fusion (syncytial phenotype) [2]: apparent inhibitory effects
- inhibition of the SARS-CoV-2 induced cytopathic effect [3]: efficiently inhibit

Compound: COc1cc2c3cc1Oc1c(OC)c(OC)cc4c1[C@@H](Cc1ccc(O)c(c1)Oc1ccc(cc1)C[C@@H]3N(C)CC2)N(C)CC4 [Berbamine hydrochloride]
- EC50 [1]: 1.73 µM
- EC50 [6]: 1.89 µM
- replicon luciferase signal, drug treatment versus DMSO [7]: no significant difference
- reduction of intracellular luciferase activity compared to DMSO treatment ([8]; Vero E6, 24 h post pseudovirus infection): about 10 fold
- intracellular luciferase activity, mean ([8]; Vero E6, 24 h post-infection (DMSO mean 389736)): 47678.5
- inhibition of S-mediated cell-cell fusion (syncytial phenotype) [2]: little or no such syncytial phenotype was observed
- %inhibiton, mean (CC50 data, CCK-8) ([9]; 0.3125 μM): -6.065%
- %inhibiton, mean (CC50 data, CCK-8) ([9]; 0.625 μM): -4.636%
- %inhibiton, mean (CC50 data, CCK-8) ([9]; 1.25 μM): -0.8416%
- %inhibiton, mean (CC50 data, CCK-8) ([9]; 2.5 μM): -0.7911%
- %inhibiton, mean (CC50 data, CCK-8) ([9]; 5 μM): -7.026%
- %inhibiton, mean (CC50 data, CCK-8) ([9]; 10 μM): -8.006%
- %inhibiton, mean (CC50 data, CCK-8) ([9]; 20 μM): 1.038%
- %inhibiton, mean (CC50 data, CCK-8) ([9]; 40 μM): 73.2674%
- %inhibiton, mean (CC50 data, CCK-8) ([9]; 80 μM): 78.8829%
- %inhibiton, mean (CC50 data, CCK-8) ([10]; 0.3125 μM): -11.728%
- %inhibiton, mean (CC50 data, CCK-8) ([10]; 0.625 μM): -16.6504%
- %inhibiton, mean (CC50 data, CCK-8) ([10]; 1.25 μM): -15.2704%
- %inhibiton, mean (CC50 data, CCK-8) ([10]; 2.5 μM): -14.7661%
- %inhibiton, mean (CC50 data, CCK-8) ([10]; 5 μM): -19.7288%
- %inhibiton, mean (CC50 data, CCK-8) ([10]; 10 μM): -18.7648%
- %inhibiton, mean (CC50 data, CCK-8) ([10]; 20 μM): -1.748%
- %inhibiton, mean (CC50 data, CCK-8) ([10]; 40 μM): 50.1206%
- %inhibiton, mean (CC50 data, CCK-8) ([10]; 80 μM): 67.6973%
- CC50 at 36 h [11]: 66.9 µM
- CC50 at 36 h [12]: 31.9 µM
- cell-attached viral RNA copies versus DMSO control group [13]: no significant difference
- Viral copies (Normalized to DMSO), mean ([13]; MOI 0.05 (DMSO = 100)): 94.7359

Compound: COc1ccc2cc1Oc1ccc(cc1)C[C@H]1c3cc(c(OC)cc3CCN1C)Oc1c(O)c(OC)cc3c1[C@H](C2)N(C)CC3 [Fangchinoline, fangchinoline]
- inhibition against SARS-CoV-2 infection [1]: dose-dependent inhibition
- selective index (SI) [1]: >9.57
- EC50 [1]: 2.09 µM
- inhibition of S-mediated cell-cell fusion (syncytial phenotype) [2]: apparent inhibitory effects
- inhibition of the SARS-CoV-2 induced cytopathic effect [3]: efficiently inhibit
- CC50 at 36 h [4]: > 20 µM
- %inhibiton, mean (CC50 data, CCK-8) ([5]; Vero-E6, 0.078125 μM): 7.966%
- %inhibiton, mean (CC50 data, CCK-8) ([5]; Vero-E6, 0.15625 μM): 4.163%
- %inhibiton, mean (CC50 data, CCK-8) ([5]; Vero-E6, 0.3125 μM): 4.478%
- %inhibiton, mean (CC50 data, CCK-8) ([5]; Vero-E6, 0.625 μM): 8.257%
- %inhibiton, mean (CC50 data, CCK-8) ([5]; Vero-E6, 1.25 μM): 10.5597%
- %inhibiton, mean (CC50 data, CCK-8) ([5]; Vero-E6, 2.5 μM): 7.088%
- %inhibiton, mean (CC50 data, CCK-8) ([5]; Vero-E6, 5 μM): 14.0504%
- %inhibiton, mean (CC50 data, CCK-8) ([5]; Vero-E6, 10 μM): 8.415%
- %inhibiton, mean (CC50 data, CCK-8) ([5]; Vero-E6, 20 μM): 0.3804%
